Assay results: publication PMC4074244 (Nature, 2014)

Key:
[1] = biological target: T1, mitochondrial glycerophosphate dehydrogenase (mGPD) (Homo sapiens, UniProt P43304); test: DCIP reduction assay; assay type: biochemical
T1 sequence (P43304 43-727): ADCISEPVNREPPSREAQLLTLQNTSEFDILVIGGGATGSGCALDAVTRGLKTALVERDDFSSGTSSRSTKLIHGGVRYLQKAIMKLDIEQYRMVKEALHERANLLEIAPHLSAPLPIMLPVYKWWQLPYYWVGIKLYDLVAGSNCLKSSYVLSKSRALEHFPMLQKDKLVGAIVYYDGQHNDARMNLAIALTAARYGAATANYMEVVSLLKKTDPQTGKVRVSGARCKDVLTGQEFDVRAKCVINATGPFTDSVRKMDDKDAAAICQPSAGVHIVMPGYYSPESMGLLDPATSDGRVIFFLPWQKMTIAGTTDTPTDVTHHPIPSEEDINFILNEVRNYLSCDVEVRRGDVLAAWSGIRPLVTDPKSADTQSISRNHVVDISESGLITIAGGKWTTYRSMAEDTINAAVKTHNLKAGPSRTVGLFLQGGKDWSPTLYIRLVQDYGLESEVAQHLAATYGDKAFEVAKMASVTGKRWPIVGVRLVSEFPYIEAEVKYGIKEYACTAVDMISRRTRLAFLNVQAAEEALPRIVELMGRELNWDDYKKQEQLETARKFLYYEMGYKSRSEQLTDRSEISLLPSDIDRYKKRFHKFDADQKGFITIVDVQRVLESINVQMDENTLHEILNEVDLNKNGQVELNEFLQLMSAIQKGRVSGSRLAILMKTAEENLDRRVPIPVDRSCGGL

[2] = biological target: T2, mitochondrial glycerophosphate dehydrogenase (mGPD) (Rattus norvegicus, UniProt P35571); test: DCIP reduction assay; assay type: biochemical
T2 sequence (P35571 43-727): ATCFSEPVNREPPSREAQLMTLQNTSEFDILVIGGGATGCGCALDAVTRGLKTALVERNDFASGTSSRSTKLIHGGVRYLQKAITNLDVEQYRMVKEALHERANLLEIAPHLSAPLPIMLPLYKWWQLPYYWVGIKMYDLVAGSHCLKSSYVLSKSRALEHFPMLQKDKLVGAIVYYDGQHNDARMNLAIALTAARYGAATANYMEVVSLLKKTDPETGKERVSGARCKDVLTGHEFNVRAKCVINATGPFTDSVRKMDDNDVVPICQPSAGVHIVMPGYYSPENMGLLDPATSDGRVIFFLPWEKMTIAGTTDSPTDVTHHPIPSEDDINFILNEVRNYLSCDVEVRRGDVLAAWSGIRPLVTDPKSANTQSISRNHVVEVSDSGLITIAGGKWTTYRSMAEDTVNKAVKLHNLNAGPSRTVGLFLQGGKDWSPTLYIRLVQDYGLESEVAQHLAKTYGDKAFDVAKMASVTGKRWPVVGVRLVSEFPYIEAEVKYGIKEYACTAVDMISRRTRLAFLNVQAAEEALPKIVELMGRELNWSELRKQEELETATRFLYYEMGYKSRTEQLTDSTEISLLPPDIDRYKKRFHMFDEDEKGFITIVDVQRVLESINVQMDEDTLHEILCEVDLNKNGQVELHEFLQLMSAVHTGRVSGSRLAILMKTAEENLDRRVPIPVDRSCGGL

For `CN(C)C(=N)N=C(N)N` [metformin], the Ki [1] was ~55 µM and the Ki [2] was ~38 µM.
